The values that follow are results of earlier work, collected in patent US20230013403A1, “COMPOSITIONS COMPRISING HUMAN MILK OLIGOSACCHARIDES FOR USE IN A SUBJECT TO SUPPORT LANGUAGE DEVELOPMENT” (SOCIETE DES PRODUITS NESTLE S.A., priority 2019, published 2023).

The test system of this series is rodents. The conditions noted are these: chronic oral administration.

As for 2′ fucosyllactose [2′FL], the “learning and working memory functions of treated animals” value is “significantly better”.
